Data set [1] deals with Ins2Akita mice (DKD). Briefly: DMAPT versus ramipril treatment of diabetic Ins2Akita mice (second series, FIG. 1). Format: in vivo, mouse. The settings on record: for urinary albumin/creatinine ratio (ACR): 10 mg/kg/d for 2 months from 2 months of age, vs untreated DKD, FIG. 1A; for glomerular injury (PAS staining) / glomerular area / fibrosis (Masson trichrome staining) / glycemia / body weight: 10 mg/kg/d for 2 months; for glomerular injury (PAS staining): FIG. 1B; for glomerular area: FIG. 1C; for fibrosis (Masson trichrome staining): FIG. 1D; for glycemia: FIG. 1E; for body weight: FIG. 1F. As to the method: (§1) Male C57BL/6-Ins2Akita/J (Ins2Akita) and C57BL/6J (WT) mice (Charles River) were housed with unrestricted access to water and were maintained on a 12-h light-dark cycle in a pathogen-free environment on standard mouse chow. All experiments were conducted in accordance with the Guide for the care and use of laboratory animals of the National Institute of Health, eighth edition and the French Institute of Health guidelines for the care and use of laboratory animals. The project was approved by the local (Inserm/UPS US006 CREFRE) and national ethics committees (ethics committee for animal experiment, CEEA122; Toulouse, France; approval 02867.01).
(§2) In a first series of experiments, 2 months old mice were treated with or without ACEi ramipril (10 mg/kg/d in drinking water) for 2 months. In a second series of experiments 2 months old mice were treated with or without ACEi ramipril as in the first series or with dimethylaminoparthenolide monofumarate (DMAPT, 10 mg/kg/d by gavage) for 2 months. In each series of experiments, urine was collected in metabolic cages for 12 h, few days before sacrifice.
Right kidney cortexes were fixed in Carnoy's solution for 24 h, dehydrated in successive baths with increasing alcohol concentrations, embedded in paraffin and 2 μm sections were cut and mounted, and stained with either periodic acid-Schiff (PAS) or Masson trichrome. Stained sections were scanned using a Nanozoomer 2.0 RS (Hamamatsu Photonics SARL) and treated with the Morpho-expert image-analysis software (version 1.00, Explora Nova) for renal corpuscle surface quantification. At least 50 glomeruli including superficial and […] cortical area, were examined for each animal. The extent of glomerular injury was expressed as the percentage of glomerular area fraction occupied by PAS positive matrix^3.
(§3) Urinary albumin concentration was measured by ELISA using the AlbuWell kit (WAK-Chemie Medical GmbH, Steinbach, Germany). Urinary creatinine concentration was measured by the colorimetric method of Jaffe according to the protocol Creatinine Assay Kit (Bio Assay Systems). Blood glucose levels were measured in caudal blood from fasted awake mice using a glucometer (Glucometer Elite XL; Bayer Healthcare, Elkhart, Ind.).
(§4) Comparison between 2 groups of values was implemented using a two-tailed unpaired Welch's t-tests. Comparison between more than 2 groups, was implemented using an ordinary one-way ANOVA followed by Homl-Sidak's multiple comparisons test was used. P<0.05 was considered statistically significant. For the proteomic data the P values were adjusted for the false discovery rate (Benjamini-Hochberg).

The conditions of data set [2]: cited from earlier work.
The conditions of data set [3]: fumarate salt; cited from earlier work.
Data set [4] relates to histone deacetylase (HDAC). The following applies: independent of NF kappa B; cited from earlier work.
The next data set deals with patients with cancer. The following applies: Phase I, standardized doses; cited from earlier work.
Data set [5] deals with immune glomerulonephritis in rat. The following applies: cited from earlier work.
The subject of data set [6] is type 2 diabetic db/db mice. The following applies: cited from earlier work.
Data set [7] has as its system NF kappa B transcription factor complex. The following applies: cited from earlier work.
For data set [8], the system named is Ins2Akita mice (DKD). As to the kind of experiment: Ramipril treatment of diabetic Ins2Akita mice (first series). Format: in vivo, mouse. On the procedure: as §1, §2, §3, §4
[9] abbreviates: ramipril 10 mg/kg/d in drinking water for 2 months.

Regarding `C/C1=C/CC[C@@]2(C)O[C@@H]2[C@H]2OC(=O)[C@H](CN(C)C)[C@@H]2CC1` [DMAPT, (4E,8S)-8-[(dimethylamino)methyl]-2,3,6,7,7aS,8,10aS,10bR-octahydro-1aR,5-dimethyl-oxireno[9,10]cyclodeca[1,2-b]furan-9(1aH)-one], in the data set on Ins2Akita mice (DKD) [1], the “urinary albumin/creatinine ratio (ACR)” value is on record as “significant reduction”, the “glomerular injury (PAS staining)” value was “significantly reduced”, the glomerular area entry is reported as “tended to reduce glomerular area without reaching significance” and the “fibrosis (Masson trichrome staining)” value is “significantly reduced”. For the same molecule, in the data set with Ins2Akita mice (DKD) [1], the glycemia entry is given as “Neither glycemia (FIG. 1E) nor body weight (FIG. 1F) were significantly influenced” and the body weight entry is listed as “Neither glycemia (FIG. 1E) nor body weight (FIG. 1F) were significantly influenced”. Also, the water-solubility entry in [2] is “water-soluble”. Besides, in [3], the oral bioavailability entry was “orally bioavailable”. Besides, in data set [4], the HDAC activity result is recorded as “inhibit histone deacetylase (HDAC) activity”.
As to `C=C1C(=O)O[C@@H]2[C@H]3O[C@]3(C)CC/C=C(\C)CC[C@@H]12` [parthenolide, (1aR,4E,7aS,10aS,10bR)-2,3,6,7,7a,8,10a,10b-octahydro-1a,5-dimethyl-8-methylene-oxireno[9,10]cyclodeca[1,2-b]furan-9(1aH)-one], in data set [2], the water-solubility result is recorded as “poor water-solubility”. Further, in the data set with patients with cancer, the “tolerability / dose-limiting toxicity” value is listed as “well tolerated without dose-limiting toxicity”. The “proteinuria and renal injury” value in [5] is listed as “beneficial impact”. In addition, the “renal inflammation and insulin resistance” value in [6] is “able to alleviate renal inflammation and insulin resistance”. The “activity of the NF kappa B transcription factor complex” value in [7] was “inhibiting the activity”.
For `CCOC(=O)[C@H](CCc1ccccc1)N[C@@H](C)C(=O)N1[C@H](C(=O)O)C[C@@H]2CCC[C@@H]21` [ramipril], in the data set with Ins2Akita mice (DKD) [1], the “urinary albumin/creatinine ratio (ACR)” value is listed as “significant reduction”, the “glomerular injury (PAS staining)” value was “no significant influence”, the glomerular area entry was “no significant influence” and the “fibrosis (Masson trichrome staining)” value was “no significant influence”. In the data set on Ins2Akita mice (DKD) [1], the glycemia result was “Neither glycemia (FIG. 1E) nor body weight (FIG. 1F) were significantly influenced” and the body weight entry was “Neither glycemia (FIG. 1E) nor body weight (FIG. 1F) were significantly influenced”. Further, in the data set on Ins2Akita mice (DKD) [8] (setting [9]), the body weight result was “no influence” and the glycemia entry is reported as “slightly but significantly reduced”. In addition, the ACR entry in the data set on Ins2Akita mice (DKD) [8] (ramipril 10 mg/kg/d in drinking water from 2 months of age for 2 months) is “significantly reduced”.

The values above are taken from US20230210813A1, “METHODS AND PHARMACEUTICAL COMPOSITIONS FOR THE TREATMENT OF CHRONIC KIDNEY DISEASE” (INSERM (INSTITUTE NATIONAL DE LA SANTÉ ET DE LA RECHERCHE …, priority 2020, published 2023).
